Reference: PubChem BioAssay AID330 (DTP/NCI, 2004)
Several values for one entry are separate records, joined by “and”; a condition that tells them apart may be missing. Identical values can stand only once. Inconclusive results and toxic doses are left out. Rule for the calls: active = survival T/C of 150% or more; inactive = T/C below 125% in these data.

Test system: P388 leukemia ip, CD2F1 mice, survival T/C
Assay: NCI In Vivo Anticancer Drug Screen. Data for tumor model P388 Leukemia (intraperitoneal) in CD2F1 (CDF1) mice
Settings: endpoint: median survival time, higher = longer survival
In short: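 Mice carrying the transplanted tumor received test compound or vehicle. Survival was recorded in each group, and the value is the treated-group measurement divided by that of the vehicle-treated control group.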

Measured: T/C

O=C1C(=O)c2ccccc2C(O)=C1CC=C(Br)Br
inactive: dose: 50.0 mg/kg/injection, schedule: Q01DX009 (ip), vehicle: saline with Tween-80 100 % of control | dose: 100.0 mg/kg/injection, schedule: Q01DX009 (ip), vehicle: saline with Tween-80 100 % of control | dose: 100.0 mg/kg/injection, schedule: Q04DX003 (ip), vehicle: saline with Tween-80 100 % of control | dose: 200.0 mg/kg/injection, schedule: Q04DX003 (ip), vehicle: saline with Tween-80 110 % of control

COc1ccccc1N=Nc1cc(S(=O)(=O)O)c2ccccc2c1O
inactive: dose: 25.0 mg/kg/injection, schedule: Q01DX009 (ip), vehicle: saline 89 % of control | dose: 50.0 mg/kg/injection, schedule: Q01DX009 (ip), vehicle: saline 97 % of control | dose: 100.0 mg/kg/injection, schedule: Q01DX009 (ip), vehicle: saline 100 % of control and 117 % of control | dose: 200.0 mg/kg/injection, schedule: Q01DX009 (ip), vehicle: saline 91 % of control

COc1cc(OCc2ccccc2)c(O)cc1-c1coc2cc(OCc3ccccc3)ccc2c1=O
inactive: dose: 100.0 mg/kg/injection, schedule: Q01DX001 (ip), vehicle: Klucel (hydroxypropylcellulose) (HPC) 96 % of control | dose: 200.0 mg/kg/injection, schedule: Q01DX001 (ip), vehicle: Klucel (hydroxypropylcellulose) (HPC) 100 % of control | dose: 400.0 mg/kg/injection, schedule: Q01DX001 (ip), vehicle: Klucel (hydroxypropylcellulose) (HPC) 94 % of control

S=C(N/N=C/c1ccncc1)Nc1ccccc1
inactive: dose: 60.0 mg/kg/injection, schedule: Q01DX005 (ip), vehicle: Klucel (hydroxypropylcellulose) (HPC) 99 % of control | dose: 120.0 mg/kg/injection, schedule: Q01DX005 (ip), vehicle: Klucel (hydroxypropylcellulose) (HPC) 100 % of control | dose: 240.0 mg/kg/injection, schedule: Q01DX005 (ip), vehicle: Klucel (hydroxypropylcellulose) (HPC) 91 % of control

COc1ccc(Cc2coc3cc(OC)cc(OC)c3c2=O)cc1
inactive: dose: 60.0 mg/kg/injection, schedule: Q01DX005 (ip), vehicle: saline with Tween-80 98 % of control | dose: 120.0 mg/kg/injection, schedule: Q01DX005 (ip), vehicle: saline with Tween-80 97 % of control | dose: 240.0 mg/kg/injection, schedule: Q01DX005 (ip), vehicle: saline with Tween-80 94 % of control

CC1=C/C(=N/N=c2\ccn(O)cc2C)C=CC1=N
inactive: dose: 3.13 mg/kg/injection, schedule: Q01DX009 (ip), vehicle: saline with Tween-80 100 % of control | dose: 6.25 mg/kg/injection, schedule: Q01DX009 (ip), vehicle: saline with Tween-80 95 % of control | dose: 12.5 mg/kg/injection, schedule: Q01DX009 (ip), vehicle: saline with Tween-80 104 % of control | dose: 25.0 mg/kg/injection, schedule: Q01DX009 (ip), vehicle: saline with Tween-80 98 % of control

CNC(=O)c1cc2ccccc2o/c1=N/NC(N)=O
inactive: dose: 100.0 mg/kg/injection, schedule: Q01DX001 (ip), vehicle: saline 103 % of control | dose: 200.0 mg/kg/injection, schedule: Q01DX001 (ip), vehicle: saline 103 % of control | dose: 400.0 mg/kg/injection, schedule: Q01DX001 (ip), vehicle: saline 96 % of control
